Where two headings read alike, the source gives them in different places.
How the values were obtained:
[1] = biological target: WT KRAS (Homo sapiens, UniProt P01116); test: KRAS WT Probe Displacement Assay (TR-FRET, GDP-loaded); format: binding
Excerpt: (§1) The synthetic routes of probe 1 and 2, which have been disclosed in PCT/CN2022/070676, are hereby incorporated herein.

[2] = biological target: KRAS G12D (Homo sapiens, UniProt P01116, G12D); test: KRAS G12D Probe Displacement Assay (TR-FRET, GDP-loaded); format: binding
Chain of KRAS G12D (P01116 1-188 isoform P01116-2 G12D): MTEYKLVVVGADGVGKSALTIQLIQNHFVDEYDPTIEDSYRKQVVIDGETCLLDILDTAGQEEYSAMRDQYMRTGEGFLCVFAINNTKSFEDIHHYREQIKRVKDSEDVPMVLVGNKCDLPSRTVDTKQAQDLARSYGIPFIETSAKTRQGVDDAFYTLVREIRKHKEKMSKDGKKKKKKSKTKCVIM
Excerpt: as §1

[3] = KRAS WT, read-out: KRAS^WT Probe Displacement Assay IC50
[4] = KRAS G12D, read-out: KRAS^G12D Probe Displacement Assay IC50

Chain of WT KRAS (P01116 1-188 isoform P01116-2): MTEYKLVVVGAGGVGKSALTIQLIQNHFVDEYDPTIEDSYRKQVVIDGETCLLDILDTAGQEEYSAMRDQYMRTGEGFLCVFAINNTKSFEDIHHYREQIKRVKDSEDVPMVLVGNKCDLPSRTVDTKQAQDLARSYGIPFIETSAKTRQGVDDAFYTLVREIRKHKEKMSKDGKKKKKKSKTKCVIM

| Compound | IC50 [1, 3] | IC50 [2, 4] | IC50 ([1]; KRAS^WT Probe Displacement Assay IC50, KRAS WT) | IC50 ([2]; KRAS^G12D Probe Displacement Assay IC50, KRAS G12D) |
| --- | --- | --- | --- | --- |
| Cc1cc(N)cc(-c2nc3c4c(nc(OC[C@@H]5COC[C@H]5N(C)C)nc4c2F)N2C[C@H]4CC[C@H](N4)[C@H]2CCO3)c1C(F)(F)F [Example 13, (3S,4S)-4-((((6aR,7S,10R)-2-(5-amino-3-methyl-2-(trifluoromethyl)phenyl)-1-fluoro-5,6,6a,7,8,9,10,11-octahydro-4-oxa-3,11a,12,14,15-pentaaza-7,10-methanocyclohepta[4,5]cycloocta [1,2,3-de]naphthalen-13-yl)oxy)methyl)-N,N-dimethyltetrahydrofuran-3-amine] | 3 to 1000 nM | < 0.3 nM | – | – |
| CO[C@@H]1C[C@@H](C(C)Oc2nc3c4c(nc(-c5cc(N)cc(C)c5C(F)(F)F)c(F)c4n2)OCC[C@@H]2[C@@H]4CC[C@H](CN32)N4)N(C)C1 (single isomer, unassigned) [Example 144] | 3 to 1000 nM | < 0.3 nM | – | – |
| [2H]C([2H])([2H])N1C[C@H](F)C[C@H]1[C@H](C)Oc1nc2c3c(nc(-c4cc(N)cc(C)c4C(F)(F)F)c(F)c3n1)OCC[C@@H]1[C@@H]3CC[C@H](CN21)N3 [Example 221, 3-((6aR,7S,10R)-1-fluoro-13-((S)-1-((2S,4R)-4-fluoro-1-(methyl-d3)pyrrolidin-2-yl)ethoxy)-5,6,6a,7,8,9,10,11-octahydro-4-oxa-3,11a,12,14,15-pentaaza-7,10-methanocyclohepta[4,5]cycloocta[1,2,3-de]naphthalen-2-yl)-5-methyl-4-(trifluoromethyl)aniline] | 3 to 1000 nM | < 0.3 nM | – | – |
| Cc1cc(N)cc(-c2nc3c4c(nc(OC[C@@]5(C)CCCN(C6COC6)C5)nc4c2F)N2C[C@H]4CC[C@H](N4)[C@H]2CCO3)c1C(F)(F)F [Example 197, 3-((6aR,7S,10R)-1-fluoro-13-(((S)-3-methyl-1-(oxetan-3-yl)piperidin-3-yl)methoxy)-5,6,6a,7,8,9,10,11-octahydro-4-oxa-3,11a,12,14,15-pentaaza-7,10-methanocyclohepta[4,5]cycloocta[1,2,3-de]naphthalen-2-yl)-5-methyl-4-(trifluoromethyl)aniline] | 3 to 1000 nM | < 0.3 nM | – | – |
| Cc1cc(N)cc(-c2nc3c4c(nc(OC[C@]56CCCN5CC(F)(F)C6)nc4c2F)N2C[C@H]4CC[C@H](N4)[C@H]2CCO3)c1C(F)(F)F [Example 34, 3-((6aR,7S,10R)-13-(((R)-2,2-difluorotetrahydro-1H-pyrrolizin-7a(5H)-yl)methoxy)-1-fluoro-5,6,6a,7,8,9,10,11-octahydro-4-oxa-3,11a,12,14,15-pentaaza-7,10-methanocyclohepta[4,5]cycloocta [1,2,3-de]naphthalen-2-yl)-5-methyl-4-(trifluoromethyl)aniline] | 3 to 1000 nM | 0.3 to 3 nM | – | – |
| [2H]C([2H])([2H])N1CCC(C(F)F)C(C)(C([2H])([2H])Oc2nc3c4c(nc(-c5cc(N)cc(Cl)c5C(F)(F)F)c(F)c4n2)OCC[C@@H]2[C@@H]4CC[C@H](CN32)N4)C1 (single isomer, unassigned) [Example 247] | 0.3 to 3 nM | < 0.3 nM | – | – |
| Cc1cc(N)cc(-c2nc3c4c(nc(OCC5(CN6CC=CC6)CC5)nc4c2F)N2C[C@H]4CC[C@H](N4)[C@H]2CCO3)c1C(F)(F)F [Example 111, 3-((6aR,7S,10R)-13-((1-((2,5-dihydro-1H-pyrrol-1-yl)methyl)cyclopropyl)methoxy)-1-fluoro-5,6,6a,7,8,9,10,11-octahydro-4-oxa-3,11a,12,14,15-pentaaza-7,10-methanocyclohepta [4,5]cycloocta [1,2,3-de]naphthalen-2-yl)-5-methyl-4-(trifluoromethyl) aniline] | – | – | 3 to 1000 nM | < 0.3 nM |
| Cc1cc(N)cc(-c2nc3c4c(nc(O[C@@H](C)[C@@H]5CC6(CC6)CN5C)nc4c2F)N2C[C@H]4CC[C@H](N4)[C@H]2CCO3)c1C(F)(F)F [Example 143, 3-((6aR,7S,10R)-1-fluoro-13-((S)-1-((S)-5-methyl-5-azaspiro[2.4]heptan-6-yl)ethoxy)-5,6,6a,7,8,9,10,11-octahydro-4-oxa-3,11a,12,14,15-pentaaza[7,10]methanocyclohepta [4,5]cycloocta[1,2,3-de]naphthalen-2-yl)-5-methyl-4-(trifluoromethyl)aniline] | 3 to 1000 nM | < 0.3 nM | – | – |
| Cc1cc(N)cc(-c2nc3c4c(nc(OCC5(C(C)N(C)C)CC5(F)F)nc4c2F)N2C[C@H]4CC[C@H](N4)[C@H]2CCO3)c1C(F)(F)F (single isomer, unassigned) [Example 59] | 3 to 1000 nM | < 0.3 nM | – | – |
| CCN1CC(F)CC(C)(COc2nc3c4c(nc(-c5cc(N)cc(C)c5C(F)(F)F)c(F)c4n2)OCC[C@@H]2[C@@H]4CC[C@H](CN32)N4)C1 (stereo partly drawn) [Example 202, 3-((6aR,7S,10R)-13-((1-ethyl-5-fluoro-3-methylpiperidin-3-yl)methoxy)-1-fluoro-5,6,6a,7,8,9,10,11-octahydro-4-oxa-3,11a,12,14,15-pentaaza-7,10-methanocyclohepta[4,5]cycloocta[1,2,3-de]naphthalen-2-yl)-5-methyl-4-(trifluoromethyl)aniline] | 3 to 1000 nM | < 0.3 nM | – | – |
| Cc1cc(N)cc(-c2nc3c4c(nc(OCC56CCCN5CC(F)(F)C6)nc4c2F)N2C[C@H]4CC[C@H](N4)[C@H]2CCO3)c1C(F)(F)F (stereo partly drawn) [Example 1, 3-((6aR,7S,10R)-13-((2,2-difluorotetrahydro-1H-pyrrolizin-7a(5H)-yl)methoxy)-1-fluoro-5,6,6a,7,8,9,10,11-octahydro-4-oxa-3,11a,12,14,15-pentaaza-7,10-methanocyclohepta[4,5]cycloocta[1,2,3-de]naphthalen-2-yl)-5-methyl-4-(trifluoromethyl)aniline] | 3 to 1000 nM | 0.3 to 3 nM | – | – |
| Cc1cc(N)cc(-c2nc3c4c(nc(OCC5(CN6CC7CC7C6)CC5(F)F)nc4c2F)N2C[C@H]4CC[C@H](N4)[C@H]2CCO3)c1C(F)(F)F (single isomer, unassigned) [Example 28] | 3 to 1000 nM | < 0.3 nM | – | – |
| Nc1cc(Cl)c(C(F)(F)F)c(-c2nc3c4c(nc(OC[C@@]56C[C@@H](F)CN5CC5(CC5)C6)nc4c2F)N2C[C@H]4CC[C@H](N4)[C@H]2CCO3)c1 [Example 207, 3-chloro-5-((6aR,7S,10R)-1-fluoro-13-(((6′R,7a′R)-6′-fluorodihydro-1′H,3′H-spiro[cyclopropane-1,2′-pyrrolizin]-7a′(5′H)-yl)methoxy)-5,6,6a,7,8,9,10,11-octahydro-4-oxa-3,11a,12,14,15-pentaaza[7,10]methanocyclohepta[4,5]cycloocta[1,2,3-de]naphthalen-2-yl)-4-(trifluoromethyl)aniline] | 0.3 to 3 nM | < 0.3 nM | – | – |
| Cc1cc(N)cc(-c2nc3c4c(nc(OCC5(C(C)N(C)C)CC5)nc4c2F)N2C[C@H]4CC[C@H](N4)[C@H]2CCO3)c1C(F)(F)F (stereo partly drawn) [Example 135, 3-((6aR,7S,10R)-13-((1-(1-(dimethylamino)ethyl)cyclopropyl)methoxy)-1-fluoro-5,6,6a,7,8,9,10,11-octahydro-4-oxa-3,11a,12,14,15-pentaaza-7,10-methanocyclohepta[4,5]cycloocta [1,2,3-de]naphthalen-2-yl)-5-methyl-4-(trifluoromethyl)aniline] | 3 to 1000 nM | < 0.3 nM | – | – |
| Cc1cc(N)cc(-c2nc3c4c(nc(OCC5(CN6CC7(C6)CC(F)(F)C7)CC5)nc4c2F)N2C[C@H]4CC[C@H](N4)[C@H]2CCO3)c1C(F)(F)F [Example 176, 3-((6aR,7S,10R)-13-((1-((6,6-difluoro-2-azaspiro[3.3]heptan-2-yl)methyl)cyclopropyl)methoxy)-1-fluoro-5,6,6a,7,8,9,10,11-octahydro-4-oxa-3,11a,12,14,15-pentaaza[7,10]methanocyclohepta[4,5]cycloocta[1,2,3-de]naphthalen-2-yl)-5-methyl-4-(trifluoromethyl)aniline] | 3 to 1000 nM | < 0.3 nM | – | – |
| Cc1cc(N)cc(-c2nc3c4c(nc(OCC5(CN(C)C)CC5(F)F)nc4c2F)N2C[C@H]4CC[C@H](N4)[C@H]2CCO3)c1C(F)(F)F (some centres unmarked) [Example 16] | 3 to 1000 nM | < 0.3 nM | – | – |
| Cc1cc(N)cc(-c2nc3c4c(nc(OCC5(CN6C[C@@H](C)O[C@@H](C)C6)CC5)nc4c2F)N2C[C@H]4CC[C@H](N4)[C@H]2CCO3)c1C(F)(F)F [Example 64, 3-((6aR,7S,10R)-13-((1-(((2S,6R)-2,6-dimethylmorpholino)methyl)cyclopropyl)methoxy)-1-fluoro-5,6,6a,7,8,9,10,11-octahydro-4-oxa-3,11a,12,14,15-pentaaza-7,10-methanocyclohepta[4,5]cycloocta [1,2,3-de]naphthalen-2-yl)-5-methyl-4-(trifluoromethyl)aniline] | 0.3 to 3 nM | < 0.3 nM | – | – |
| Cc1cc(N)cc(-c2nc3c4c(nc(OCC5(CN6CCCC(O)(C(F)(F)F)C6)CC5)nc4c2F)N2C[C@H]4CC[C@H](N4)[C@H]2CCO3)c1C(F)(F)F (stereo partly drawn) [Example 117, 1-((1-((((6aR,7S,10R)-2-(5-amino-3-methyl-2-(trifluoromethyl)phenyl)-1-fluoro-5,6,6a,7,8,9,10,11-octahydro-4-oxa-3,11a,12,14,15-pentaaza-7,10-methanocyclohepta [4,5]cycloocta [1,2,3-de]naphthalen-13-yl)oxy)methyl)cyclopropyl)methyl)-3-(trifluoromethyl) piperidin-3-ol] | 3 to 1000 nM | < 0.3 nM | – | – |
| [2H]C([2H])([2H])N1CCC(C(F)F)C(C)(C([2H])([2H])Oc2nc3c4c(nc(-c5cc(N)cc(Cl)c5C(F)(F)F)c(F)c4n2)OCC[C@@H]2[C@@H]4CC[C@H](CN32)N4)C1 (single isomer, unassigned) [Example 246] | 3 to 1000 nM | 0.3 to 3 nM | – | – |

— US20260347373A1, “HETEROCYCLIC COMPOUNDS, COMPOSITIONS THEREOF, AND METHODS OF TREATMENT THEREWITH” (BeOne Medicines I GmbH, priority 2023, published 2026)
